How the values were obtained:
Type in all cases: cell-based
[1] = Cytotoxicity against human MDA-MB435 cells by MTT assay; settings: mda-mb-435
[2] = system: HCT-8; test: Cytotoxicity against human HCT8 cells by MTT assay
[3] = system: SF-295; test: Cytotoxicity against human SF295 cells by MTT assay
[4] = system: HL-60; test: Cytotoxicity against human HL60 cells by MTT assay

In the case of `OC1\C=C/C=C/C=C/CC[C@H]2CN3CCCCCCCCCCCC[C@H]4C[C@H](CN(C1)C4)[C@@H]2CC3` (stereo partly specified), the Activity [1] is reported as 3.1 µg/mL, the Activity [2] is reported as greater than 25 µg/mL and the Activity [3] is reported as 8.7 µg/mL. It also gave an Activity [4] of 6.9 µg/mL.
`OC1/C=C\C=C/CCCCCC[C@H]2CN3CC/C=C\CCCCCCC4C[C@@H](CN(C1)C4)[C@H]2CC3` (stereo partly specified) [ARENOSCLERIN D] gave an Activity [1] of 1.2 µg/mL, an Activity [2] of 6.2 µg/mL and an Activity [3] of 5.9 µg/mL. It also gave an Activity [4] of 2.1 µg/mL.
`C1=C\CCCCC[C@H]2CN3CC/C=C\CCCCCC[C@@H]4C[C@@H](CN(CC/C=C\C/1)C4)[C@H]2CC3` [HALICLONACYCLAMINE F] showed an Activity [1] of 1 µg/mL, an Activity [2] of 8.6 µg/mL and an Activity [3] of 4.5 µg/mL. It also gave an Activity [4] of 2.2 µg/mL.
For `O[C@H]1/C2=C\C/C=C/C=C\C=C/CCN3CC45CCCCCCCCCCCCN(CC1C4CC23)C5` (stereo partly specified) [MADANGAMINE F], the Activity [1] was 16.2 µg/mL, the Activity [2] was greater than 25 µg/mL and the Activity [3] was 19.8 µg/mL. It also gave an Activity [4] of 16.7 µg/mL.

— ChEMBL document CHEMBL1142119, “Cytotoxic alkylpiperidine alkaloids from the Brazilian marine sponge Pachychalina alcaloidifera” (J Nat Prod, 2007)
